Data published in patent US7544703B2, “Cyclic compound having 4-pyridylalkylthio group having substituted or unsubstituted amino group introduced therein” (Santen Pharmaceutical Co., Ltd., priority 2004, dated 2009).
Where a name gives a salt, the structure may show the parent alone.

Tests used:
[1] = test system: adjuvant arthritis models in rats; experiment: Paw edema inhibitory action test using adjuvant arthritis models in rats; format: in vivo; conditions: 504 h; Lewis rat, adjuvant-untreated (secondary inflammation) paw, day 21; 10 mg/kg/day oral once a day, day 0 to day 20; average of 8 rats per group; read-out: Paw edema inhibition rate (%)
Procedure: A paw edema inhibitory action test of the compounds of the present invention was performed using an adjuvant arthritis model in rats, which is one of the widely-used methods of evaluating in vivo antiarthritis effects of drugs.
As one of the widely-used methods of evaluating antiarthritic effects of drugs, a paw edema inhibitory action test using adjuvant arthritis models in rats is known. Accordingly, a paw edema inhibitory action test of the compounds of the present invention was performed, the paw edema inhibition rate was calculated, and the antiarthritic effect of each of the compounds of the present invention was evaluated using the obtained rate as an index.
A 1% aqueous methyl cellulose solution was added to each test compound to suspend it, whereby a 2 mg/mL test compound suspension was prepared.
Liquid paraffin was added to Mycobacterium butyricum to suspend it, whereby 6 mg/mL adjuvant was prepared.
• 1) The adjuvant (0.1 mL) was injected subcutaneously into a left hind paw sole of each rat (male, 9 weeks of age, Lewis rat) to induce arthritis. • 2) From the adjuvant injection day (i.e. on day 0) to day 20, the test compound suspension (10 mg/kg/day) was orally administered once a day consecutively. • 3) On the adjuvant injection day, day 1, day 4, day 7, day 11, day 14, day 18 and day 21, each paw volume of both hind paws was measured with a plethysmometer. • 4) A test was performed in the same manner as in 1) to 3) except that the 1% aqueous methyl cellulose solution was used instead of the test compound suspension, and the result was used as a control. (Method of Evaluation)
Each paw edema inhibition rate of paw edema in an adjuvant-untreated paw (secondary inflammation paw) in each test compound administration group to paw edema in a secondary inflammation paw in a control group was calculated, and the antiarthritic effect of each of the compounds of the present invention was evaluated using the obtained rate as an index.
The paw edema rate was calculated according to the following calculation equation 1, and then the paw edema inhibition rate (the average of 8 rats per group), which was used as an index of the antiarthritic effect, was calculated according to the calculation equation 2. Paw edema rate (%)=(Paw volume after adjuvant treatment/paw volume before adjuvant treatment)×100 (Calculation Equation 1) Paw edema inhibition rate (%)=100−{(Sx−100)/(So−100)}×100 (Calculation Equation 2) So: Paw edema rate of control group Sx: Paw edema rate of test compound suspension administration group (Test Results and Discussion)

[2] = test system: choroidal neovascularization models in rats; experiment: Neovascularization incidence test using laser-induced choroidal neovascularization models in rats; format: in vivo; conditions: 168 h; Brown Norway rat, krypton laser photocoagulation; 30 mg/kg/day oral once a day for 7 days; fluorescein fundus photography on day 7; average of 3 to 4 rats and 6 to 8 eyes; read-out: Ratio of neovascularization incidence rate (% of Control)
Procedure: A neovascularization incidence test of the compounds of the present invention was performed using a choroidal neovascularization model in rats, which is one of the widely-used methods of evaluating in vivo choroidal neovascularization inhibitory effects of drugs.
As one of the widely-used methods of evaluating choroidal neovascularization inhibitory effects of drugs, a neovascularization incidence test using choroidal neovascularization models in rats was reported in Graefe's Arch. Cli. Exp. Ophthalmol., 235, 313-319 (1997). According to the method described in the above-mentioned document, a neovascularization incidence test of the compounds of the present invention was performed, the ratio of neovascularization incidence rate of each of the compounds of the present invention administration groups to a neovascularization incidence rate of vehicle administration group (control group) was calculated, and the choroidal neovascularization inhibitory effect of each of the compounds of the present invention was evaluated using the obtained ratio as an index.
A 1% aqueous methyl cellulose solution was added to each test compound to suspend it, whereby a 6 mg/10 mL test compound suspension was prepared.
• 1) A 7:1 mixed solution (1 mL/kg) of a 5% ketamine hydrochloride injection and a 2% xylazine hydrochloride injection was administered intramuscularly to rats (Brown Norway male rat, 8 weeks of age, weight: 200 to 250 g) to anesthetize them systemically. • 2) A tropicamide-phenylephrine hydrochloride ophthalmic solution (trade name: Mydrin-P) was instilled into eyes to cause mydriasis, and then photocoagulation was performed in a Bruch's membrane of each rat using a krypton laser photocoagulation apparatus.
The laser photocoagulation was performed at 8 spots per eye sparsely avoiding thick retinal vessels in a posterior section of ocular fundus and focusing on the deep layer of the retina. Photocoagulation conditions were adjusted to 100 μm of spot size, 100 mW of intensity and 0.1 sec. dulation. • 3) After the photocoagulation, the ocular fundus was photographed to confirm photocoagulation (laser irradiation) sites. (Method of Test and Method of Measurement) • 1) From the laser photocoagulation day (i.e. on day 0) to day 6, the test compound suspension (30 mg/kg/day) was administered orally once a day for 7 consecutive days. • 2) As the vehicle administration group (control group), a test was performed in the same manner as in 1) except that the 1% aqueous methyl cellulose solution was used instead of the test compound suspension, and the result was used as a control. (Method of Evaluation) • 1) On day 7 after the photocoagulation, 0.1 mL of a 10% aqueous fluorescein solution was injected into a tail vein of the rat, and fluorescein fundus photography was performed. • 2) Next, in the fluorescein fundus photography, a spot where fluorescence leak was not observed was judged as negative, and a spot where fluorescence leak was observed was judged as positive. Photocoagulation sites where a little fluorescence leak was observed were judged as positive when two such sites are present. • 3) The neovascularization incidence rate was calculated according to the calculation equation 1. The ratio of the neovascularization incidence rate of the test compound administration group to that of the vehicle administration group was calculated according to the calculation equation 2 using the neovascularization incidence rate of the respective administration groups. […]

With `Cc1cc(C)cc(NC(=O)c2cccnc2SCc2ccnc(N)c2)c1` [Compound 3-1, 2-(2-Aminopyridin-4-ylmethylthio)-N-(3,5-dimethylphenyl)pyridine-3-carboxamide monohydrochloride] the inhibition in vivo at 10 mg/kg/day [1] was 48% and the response vs control in vivo at 30 mg/kg/day [2] was 12%.

Work on `CC(=O)Nc1cc(CSc2ncccc2C(=O)Nc2ccc(OC(F)(F)F)cc2)ccn1` [Compound 4-11, 2-(2-Acetylaminopyridin-4-ylmethylthio)-N-(4-trifluoromethoxyphenyl)pyridine-3-carboxamide] yielded an inhibition in vivo at 10 mg/kg/day [1] of 65% and a response vs control in vivo at 30 mg/kg/day [2] of 0%.

For `O=C(CO)Nc1cc(CSc2ncccc2C(=O)Nc2ccc(OC(F)(F)F)cc2)ccn1` [Compound 12-1, 2-(2-Hydroxyacetylaminopyridin-4-ylmethylthio)-N-(4-trifluoromethoxyphenyl)pyridine-3-carboxamide], the inhibition in vivo at 10 mg/kg/day [1] was 48% and the response vs control in vivo at 30 mg/kg/day [2] was 6%.

`CNc1cc(CSc2ncccc2C(=O)Nc2ccc(OC(F)(F)F)cc2)ccn1` [Compound 3-8, 2-(2-Methylaminopyridin-4-ylmethylthio)-N-(4-trifluoromethoxyphenyl)pyridine-3-carboxamide monohydrochloride] gave an inhibition in vivo at 10 mg/kg/day [1] of 30% and a response vs control in vivo at 30 mg/kg/day [2] of 6%.

Molecule `CC(=O)OCC(=O)Nc1cc(CSc2ncccc2C(=O)Nc2cc(C)cc(C)c2)ccn1` [Compound 10-1, 2-(2-Acetoxyacetylaminopyridin-4-ylmethylthio)-N-(3,5-dimethylphenyl)pyridine-3-carboxamide] has an inhibition in vivo at 10 mg/kg/day [1] of 59% and a response vs control in vivo at 30 mg/kg/day [2] of 11%.

In the case of `Nc1cc(CSc2ncccc2C(=O)Nc2ccc(OC(F)(F)F)cc2)ccn1` [Compound 3-10, 2-(2-Aminopyridin-4-ylmethylthio)-N-(4-trifluoromethoxyphenyl)pyridine-3-carboxamide], the inhibition in vivo at 10 mg/kg/day [1] is reported as 35% and the response vs control in vivo at 30 mg/kg/day [2] is reported as 7%.

`CC(=O)Nc1cc(CSc2ncccc2C(=O)Nc2cc(C)cc(C)c2)ccn1` [Compound 4-1, 2-(2-Acetylaminopyridin-4-ylmethylthio)-N-(3,5-dimethylphenyl)pyridine-3-carboxamide] was tested, and the inhibition in vivo at 10 mg/kg/day [1] was 90% and the response vs control in vivo at 30 mg/kg/day [2] was 3%.

With `CC(=O)Nc1cc(CSc2ncccc2C(=O)Nc2ccc(Cl)cc2)ccn1` [Compound 4-10, 2-(2-Acetylaminopyridin-4-ylmethylthio)-N-(4-chlorophenyl)pyridine-3-carboxamide] the inhibition in vivo at 10 mg/kg/day [1] was 71% and the response vs control in vivo at 30 mg/kg/day [2] was 9%.

Molecule `CNC(=O)Nc1cc(CSc2ncccc2C(=O)Nc2cc(C)cc(C)c2)ccn1` [Compound 9-1, N-(3,5-Dimethylphenyl)-2-[2-(N′-methylureido)pyridin-4-ylmethylthio]pyridine-3-carboxamide] has an inhibition in vivo at 10 mg/kg/day [1] of 55% and a response vs control in vivo at 30 mg/kg/day [2] of 8%.
